{"source": "patent US5428059A", "about": "“Benzopyran derivatives and an anti-allergic agent possessing the same as the active ingredient” (Dainippon Ink & Chemicals, Inc., priority 1991, dated 1995)"}
{"system": "Hartley-type male guinea pigs", "assay": "Guinea Pig Homogeneous Skin Passive Anaphylaxis Assay (PCA reaction)", "format": "in vivo, guinea pig (Hartley-type)", "conditions": "Cavia porcellus, 10 mg/kg oral, 48 h after sensitization, read-out: Allergic reaction inhibitory index (%)", "procedure,_shortened": "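Inhibition % is derived from Evans Blue leakage area (mm^2, product of spot diameters) read 30 min after i.v. OVA/dye challenge. Beforehand, male Hartley guinea pigs (250~300 g) were passively sensitized intradermally with 120-fold-diluted anti-OVA serum and, after 48 h, received test compound 10 mg/kg p.o.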", "units": {"inhibition in vivo at 10 mg/kg": "%"}}
{"compound": "COc1cccc2c(OC(C)=O)c(O)c(=O)oc12", "note": "[Compound 112, 3-hydroxy-4-(acetoxy)-8-(methoxy)-2H-1-benzopyran-2-one]", "inhibition in vivo at 10 mg/kg": 32}
{"compound": "O=C(Oc1c(O)c(=O)oc2cc(O)ccc12)c1ccccc1", "note": "[Compound 8, 4-(benzoyloxy)-3,7-(dihydroxy)-2H-1-benzopyran-2-one]", "inhibition in vivo at 10 mg/kg": 40}
{"compound": "COc1cccc2oc(=O)c(OC(=O)c3ccccc3)c(O)c12", "note": "[Compound 194, 3-(benzoyloxy)-4-hydroxy-5-(methoxy)-2H-1-benzopyran-2-one]", "inhibition in vivo at 10 mg/kg": 46}
{"compound": "CCCCCCCCCCOc1c(OC(C)=O)c(=O)oc2cc(O)ccc12", "note": "[Compound 12, 3-(acetoxy)-4-(decyloxy)-7-hydroxy-2H-1-benzopyran-2-one]", "inhibition in vivo at 10 mg/kg": 30}
{"compound": "CC(C)=CCC/C(C)=C/COc1c(O)c(=O)oc2cccc(OC(C)C)c12", "note": "[Compound 220, 3-hydroxy-4-(geranyloxy)-5-(isopropoxy)-2H-1-benzopyran-2-one]", "inhibition in vivo at 10 mg/kg": 30}
{"compound": "CC(C)=CCC/C(C)=C/COc1cccc2oc(=O)c(O)c(OC(C)C)c12", "note": "[Compound 249, 3-hydroxy-4-(isopropoxy)-5-(geranyloxy)-2H-1-benzopyran-2-one]", "inhibition in vivo at 10 mg/kg": 32}
{"compound": "CC(=O)Oc1ccc2c(OC(C)=O)c(OC(C)=O)c(=O)oc2c1", "note": "[Compound 11, 3,4,7-(triacetoxy)-2H-1-benzopyran-2-one]", "inhibition in vivo at 10 mg/kg": 31}
{"compound": "CC(=O)Oc1c(OC(C)C)c2cccc(O)c2oc1=O", "note": "[Compound 100, 3-(acetoxy)-4-(isopropoxy)-8-hydroxy-2H-1-benzopyran-2-one]", "inhibition in vivo at 10 mg/kg": 30}
{"compound": "COc1c(OC(C)=O)c2ccc(OC/C=C(\\C)CCC=C(C)C)cc2oc1=O", "note": "[Compound 82, 3-(methoxy)-4-(acetoxy)-7-(geranyloxy)-2H-1-benzopyran-2-one]", "inhibition in vivo at 10 mg/kg": 30}
{"compound": "COc1cccc2c(OC(=O)c3ccccc3)c(OC/C=C(\\C)CCC=C(C)C)c(=O)oc12", "note": "[Compound 122, 3-(geranyloxy)-4-(benzoyloxy)-8-(methoxy)-2H-1-benzopyran-2-one]", "inhibition in vivo at 10 mg/kg": 30}
{"compound": "CC(C)=CCC/C(C)=C/COc1cccc2c(OC(C)C)c(OC(=O)c3ccccc3)c(=O)oc12", "note": "[Compound 165, 3-(benzoyloxy)-4-(isopropoxy)-8-(geranyloxy)-2H-1-benzopyran-2-one]", "inhibition in vivo at 10 mg/kg": 30}
{"compound": "CCCCCCCCCCOc1cccc2oc(=O)c(OC/C=C(\\C)CCC=C(C)C)c(OC/C=C(\\C)CCC=C(C)C)c12", "note": "[Compound 243, 3,4-(digeranyloxy)-5-(decyloxy)-2H-1-benzopyran-2-one]", "inhibition in vivo at 10 mg/kg": 31}
{"compound": "CCCCCCCCCCOc1cccc2oc(=O)c(OC(=O)c3ccccc3)c(OC/C=C(\\C)CCC=C(C)C)c12", "note": "[Compound 240, 3-(benzoyloxy)-4-(geranyloxy)-5-(decyloxy)-2H-1-benzopyran-2-one]", "inhibition in vivo at 10 mg/kg": 30}
{"compound": "CC(C)=CCC/C(C)=C/COc1ccc2c(OC(C)C)c(OC(=O)c3ccccc3)c(=O)oc2c1", "note": "[Compound 81, 3-(benzoyloxy)-4-(isopropoxy)-7-(geranyloxy)-2H-1-benzopyran-2-one]", "inhibition in vivo at 10 mg/kg": 31}
{"compound": "CCCCCCCCCCOc1c(O)c2ccc(OC(C)C)cc2oc1=O", "note": "[Compound 48, 3-(decyloxy)-4-hydroxy-7-(isopropoxy)-2H-1-benzopyran-2-one]", "inhibition in vivo at 10 mg/kg": 42}
{"compound": "O=C(Oc1c(O)c2cc(O)ccc2oc1=O)c1ccccc1", "note": "[Compound 262, 3-(benzoyloxy)-4,6-(dihydroxy)-2H-1-benzopyran-2-one]", "inhibition in vivo at 10 mg/kg": 30}
{"compound": "CC(=O)Oc1c(O)c(=O)oc2c(OC(C)C)cccc12", "note": "[Compound 131, 3-hydroxy-4-(acetoxy)-8-(isopropoxy)-2H-1-benzopyran-2-one]", "inhibition in vivo at 10 mg/kg": 31}
{"compound": "CCCCCCCCCCOc1cccc2c(OC(C)=O)c(O)c(=O)oc12", "note": "[Compound 145, 3-hydroxy-4-(acetoxy)-8-(decyloxy)-2H-1-benzopyran-2-one]", "inhibition in vivo at 10 mg/kg": 32}
{"compound": "CC(C)Oc1ccc2c(O)c(OC(=O)c3ccccc3)c(=O)oc2c1", "note": "[Compound 44, 3-(benzoyloxy)-4-(hydroxy)-7-(isopropoxy)-2H-1-benzopyran-2-one]", "inhibition in vivo at 10 mg/kg": 37}
{"compound": "CCCCCCCCCCOc1cccc2oc(=O)c(OC(C)C)c(OC/C=C(\\C)CCC=C(C)C)c12", "note": "[Compound 242, 3-(isopropoxy)-4-(geranyloxy)-5-(decyloxy)-2H-1-benzopyran-2-one]", "inhibition in vivo at 10 mg/kg": 30}
{"compound": "COc1c(OC/C=C(\\C)CCC=C(C)C)c2c(OC(C)C)cccc2oc1=O", "note": "[Compound 222, 3-(methoxy)-4-(geranyloxy)-5-(isopropoxy)-2H-1-benzopyran-2-one]", "inhibition in vivo at 10 mg/kg": 32}
{"compound": "CCCCCCCCCCOc1ccc2c(OC/C=C(\\C)CCC=C(C)C)c(OC(=O)c3ccccc3)c(=O)oc2c1", "note": "[Compound 70, 3-(benzoyloxy)-4-(geranyloxy)-7-(decyloxy)-2H-1-benzopyran-2-one]", "inhibition in vivo at 10 mg/kg": 30}
{"compound": "CC(C)Oc1ccc2c(O)c(O)c(=O)oc2c1", "note": "[Compound 45, 3,4-dihydroxy-7-(isopropoxy)-2H-1-benzopyran-2-one]", "inhibition in vivo at 10 mg/kg": 58}
{"compound": "CCCCCCCCCCOc1c(O)c(=O)oc2ccc(O)cc12", "note": "[Compound 268, 3,6-(dihydroxy)-4-(decyloxy)-2H-1-benzopyran-2-one]", "inhibition in vivo at 10 mg/kg": 33}
{"compound": "COc1cccc2c(OC/C=C(\\C)CCC=C(C)C)c(OC(C)=O)c(=O)oc12", "note": "[Compound 123, 3-(acetoxy)-4-(geranyloxy)-8-(methoxy)-2H-1-benzopyran-2-one]", "inhibition in vivo at 10 mg/kg": 34}
{"compound": "CCCCCCCCCCOc1c(OC(=O)c2ccccc2)c2c(O)cccc2oc1=O", "note": "[Compound 186, 3-(decyloxy)-4-(benzoyloxy)-5-hydroxy-2H-1-benzopyran-2-one]", "inhibition in vivo at 10 mg/kg": 32}
{"compound": "O=c1oc2cccc(O)c2c(O)c1O", "note": "[Compound 177, 3,4,5-trihydroxy-2H-1-benzopyran-2-one]", "inhibition in vivo at 10 mg/kg": 37}
{"compound": "CC(C)=CCC/C(C)=C/COc1c(O)c2c(OC/C=C(\\C)CCC=C(C)C)cccc2oc1=O", "note": "[Compound 253, 3,5-(digeranyloxy)-4-hydroxy-2H-1-benzopyran-2-one]", "inhibition in vivo at 10 mg/kg": 33}
{"compound": "CCCCCCCCCCOc1cccc2oc(=O)c(O)c(OCCCC)c12", "note": "[Compound 234, 3-hydroxy-4-(butoxy)-5-(decyloxy)-2H-1-benzopyran-2-one]", "inhibition in vivo at 10 mg/kg": 33}
{"compound": "COc1cccc2oc(=O)c(O)c(OC(C)=O)c12", "note": "[Compound 196, 3-hydroxy-4-(acetoxy)-5-(methoxy)-2H-1-benzopyran-2-one]", "inhibition in vivo at 10 mg/kg": 33}
{"compound": "COc1c(OC/C=C(\\C)CCC=C(C)C)c(=O)oc2cc(OC/C=C(\\C)CCC=C(C)C)ccc12", "note": "[Compound 87, 3,7-(digeranyloxy)-4-(methoxy)-2H-1-benzopyran-2-one]", "inhibition in vivo at 10 mg/kg": 31}
{"compound": "CC(=O)Oc1c(OC(C)=O)c2c(OC(C)C)cccc2oc1=O", "note": "[Compound 213, 3,4-(diacetoxy)-5-(isopropoxy)-2H-1-benzopyran-2-one]", "inhibition in vivo at 10 mg/kg": 33}
{"compound": "CCCCCCCCCCOc1ccc2c(OC/C=C(\\C)CCC=C(C)C)c(O)c(=O)oc2c1", "note": "[Compound 68, 3-hydroxy-4-(geranyloxy)-7-(decyloxy)-2H-1-benzopyran-2-one]", "inhibition in vivo at 10 mg/kg": 32}
{"compound": "CC(C)=CCC/C(C)=C/COc1c(O)c2cccc(OC(C)C)c2oc1=O", "note": "[Compound 138, 3-(geranyloxy)-4-hydroxy-8-(isopropoxy)-2H-1-benzopyran-2-one]", "inhibition in vivo at 10 mg/kg": 35}
{"compound": "CC(C)=CCC/C(C)=C/COc1c(O)c2ccc(OC(C)C)cc2oc1=O", "note": "[Compound 53, 3-(geranyloxy)-4-hydroxy-7-(isopropoxy)-2H-1-benzopyran-2-one]", "inhibition in vivo at 10 mg/kg": 38}
{"compound": "CC(C)Oc1cccc2oc(=O)c(O)c(O)c12", "note": "[Compound 211, 3,4-(dihydroxy)-5-(isopropoxy)-2H-1-benzopyran-2-one]", "inhibition in vivo at 10 mg/kg": 52}
{"compound": "COc1ccc2c(OC/C=C(\\C)CCC=C(C)C)c(OC/C=C(\\C)CCC=C(C)C)c(=O)oc2c1", "note": "[Compound 43, 3,4-(digeranyloxy)-7-(methoxy)-2H-1-benzopyran-2-one]", "inhibition in vivo at 10 mg/kg": 30}
{"compound": "CC(=O)Oc1c(OC(=O)c2ccccc2)c(=O)oc2cc(OC/C=C(\\C)CCC=C(C)C)ccc12", "note": "[Compound 77, 3-(benzoyloxy)-4-(acetoxy)-7-(geranyloxy)-2H-1-benzopyran-2-one]", "inhibition in vivo at 10 mg/kg": 31}
{"compound": "CCCCCCCCCCOc1cccc2oc(=O)c(OC/C=C(\\C)CCC=C(C)C)c(O)c12", "note": "[Compound 237, 3-(geranyloxy)-4-hydroxy-5-(decyloxy)-2H-1-benzopyran-2-one]", "inhibition in vivo at 10 mg/kg": 34}
{"compound": "COc1ccc2c(OC(C)=O)c(O)c(=O)oc2c1", "note": "[Compound 31, 3-hydroxy-4-(acetoxy)-7-(methoxy)-2H-1-benzopyran-2-one]", "inhibition in vivo at 10 mg/kg": 38}
{"compound": "COc1cccc2c(OC/C=C(\\C)CCC=C(C)C)c(OC/C=C(\\C)CCC=C(C)C)c(=O)oc12", "note": "[Compound 126, 3,4-(digeranyloxy)-8-(methoxy)-2H-1-benzopyran-2-one]", "inhibition in vivo at 10 mg/kg": 30}
{"compound": "CC(C)=CCC/C(C)=C/COc1c(OC/C=C(\\C)CCC=C(C)C)c2cccc(OC(C)C)c2oc1=O", "note": "[Compound 142, 3,4-(digeranyloxy)-8-(isopropoxy)-2H-1-benzopyran-2-one]", "inhibition in vivo at 10 mg/kg": 31}
{"compound": "CCCCCCCCCCOc1cccc2c(OCCCC)c(O)c(=O)oc12", "note": "[Compound 148, 3-hydroxy-4-(butoxy)-8-(decyloxy)-2H-1-benzopyran-2-one]", "inhibition in vivo at 10 mg/kg": 31}
{"compound": "CCCCCCCCCCOc1c(O)c2cccc(O)c2oc1=O", "note": "[Compound 97, 3-(decyloxy)-4,8-(dihydroxy)-2H-1-benzopyran-2-one]", "inhibition in vivo at 10 mg/kg": 34}
{"compound": "CCCCCCCCCCOc1c(O)c(=O)oc2cccc(OC)c12", "note": "[Compound 199, 3-hydroxy-4-(decyloxy)-5-(methoxy)-2H-1-benzopyran-2-one]", "inhibition in vivo at 10 mg/kg": 32}
{"compound": "COc1ccc2oc(=O)c(O)c(O)c2c1", "note": "[Compound 272, 3,4-(dihydroxy)-6-(methoxy)-2H-1-benzopyran-2-one]", "inhibition in vivo at 10 mg/kg": 30}
{"compound": "CC(C)Oc1cccc2c(O)c(O)c(=O)oc12", "note": "[Compound 130, 3,4-(dihydroxy)-8-(isopropoxy)-2H-1-benzopyran-2-one]", "inhibition in vivo at 10 mg/kg": 39}
